Reference: ChEMBL document CHEMBL1201862, “PubChem BioAssay data set” (2004)
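Values below derive from 48-hour exposures of cells grown in 96-well plates, with endpoints linearly interpolated between the two concentrations bracketing the appropriate inhibition level. The concentration for 50% growth inhibition is given as GI50.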 Calls of active or inactive are those of the source. No stated cut-off is given here; in the data, active = GI50 up to about 1.1 µM and inactive = higher.

What was measured:
Experiment in all cases: NCI tumour cell line growth inhibition, 48 h
HCC 2998 = tested on: HCC 2998
NCI-H226 = tested on: NCI-H226
MDA-MB-435 = tested on: MDA-MB-435
UO-31 = tested on: UO-31
PC-3 = tested on: PC-3
MCF7 = tested on: MCF7
K562 = tested on: K562
UACC-257 = tested on: UACC-257
DU-145 = tested on: DU-145
A549 = tested on: A549
OVCAR-8 = tested on: OVCAR-8
NCI-H460 = tested on: NCI-H460
SK-MEL-5 = tested on: SK-MEL-5
SW-620 = tested on: SW-620
UACC-62 = tested on: UACC-62
SK-MEL-2 = tested on: SK-MEL-2
SF-268 = tested on: SF-268
U-251 = tested on: U-251
CCRF-CEM = tested on: CCRF-CEM
MDA-N = tested on: MDA-N
RXF 393 = tested on: RXF 393
LOX IMVI = tested on: LOX IMVI
SR = tested on: SR
SNB-75 = tested on: SNB-75
SK-MEL-28 = tested on: SK-MEL-28
T47D = tested on: T47D
TK-10 = tested on: TK-10
MOLT-4 = tested on: MOLT-4
HOP-18 = tested on: HOP-18
NCI-H23 = tested on: NCI-H23
NCI-H522 = tested on: NCI-H522
HCT-15 = tested on: HCT-15
RXF 631 = tested on: RXF 631
IGROV-1 = tested on: IGROV-1
XF498 = tested on: XF498
MDA-MB-231 = tested on: MDA-MB-231
SN12C = tested on: SN12C
EKVX = tested on: EKVX
SF-295 = tested on: SF-295
NCI/ADR-RES = tested on: NCI/ADR-RES
COLO 205 = tested on: COLO 205
SF-539 = tested on: SF-539
HOP-62 = tested on: HOP-62
SNB-19 = tested on: SNB-19
HL-60 = tested on: HL-60
HT-29 = tested on: HT-29
KM12 = tested on: KM12
HCT-116 = tested on: HCT-116
ACHN = tested on: ACHN
786-0 = tested on: 786-0
Malme-3M = tested on: Malme-3M
SNB-78 = tested on: SNB-78
OVCAR-5 = tested on: OVCAR-5
SK-OV-3 = tested on: SK-OV-3
Hs-578T = tested on: Hs-578T
A498 = tested on: A498
M14 = tested on: M14
KM-20L2 = tested on: KM-20L2
HOP-92 = tested on: HOP-92
OVCAR-3 = tested on: OVCAR-3
CAKI-1 = tested on: CAKI-1
RPMI-8226 = tested on: RPMI-8226
LXFL 529 = tested on: LXFL 529
DMS-273 = tested on: DMS-273
DLD-1 = tested on: DLD-1
DMS-114 = tested on: DMS-114
OVCAR-4 = tested on: OVCAR-4
M19-MEL = tested on: M19-MEL

Measured: GI50

O=C(Nc1nc2ncn(CCOC(=O)c3ccccc3)c2c(=O)[nH]1)c1ccccc1
inactive: HCC 2998 97.9 µM | NCI-H226 28.4 µM | MDA-MB-435 2.48 µM | UO-31 51.9 µM | PC-3 47.2 µM | MCF7 4.4 µM | K562 3.05 µM | UACC-257 > 95.7 µM | DU-145 31.8 µM | A549 8.09 µM | OVCAR-8 33.3 µM | NCI-H460 8.43 µM | SK-MEL-5 5.51 µM | SW-620 4.98 µM | UACC-62 9.12 µM | SK-MEL-2 35.2 µM | SF-268 26.2 µM | U-251 7.24 µM | CCRF-CEM 9.71 µM | MDA-N 2.54 µM | RXF 393 42.4 µM | LOX IMVI 5.92 µM | SR 5.35 µM | SNB-75 18.9 µM | SK-MEL-28 50.7 µM | T47D 28.9 µM | TK-10 > 100 µM | MOLT-4 6.64 µM | HOP-18 > 100 µM | NCI-H23 20.1 µM | NCI-H522 2.75 µM | RXF 631 15.4 µM | IGROV-1 21 µM | XF498 20.2 µM | MDA-MB-231 3.79 µM | SN12C 11.8 µM | EKVX > 84.3 µM | SF-295 12.9 µM | NCI/ADR-RES 66.2 µM | COLO 205 8.47 µM | SF-539 10.8 µM | HOP-62 20.4 µM | SNB-19 17.3 µM | HL-60 2.59 µM | HT-29 3.68 µM | KM12 3.34 µM | HCT-116 4.43 µM | ACHN > 81.1 µM | 786-0 15.8 µM | Malme-3M 42.3 µM | SNB-78 > 100 µM | OVCAR-5 > 100 µM | SK-OV-3 > 50.7 µM | Hs-578T 13.1 µM | A498 > 100 µM | M14 15.3 µM | KM-20L2 6.9 µM | HOP-92 25.6 µM | OVCAR-3 29.5 µM | CAKI-1 20.7 µM | RPMI-8226 6.1 µM | LXFL 529 22.7 µM
4.7 µM: HCT-15

COc1cc(C2C(C(=O)O)=C(CO)Oc3cc4c(cc32)OCO4)cc(OC)c1OC (stereo not drawn)
> 100 µM: HCT-15
inactive: UO-31 > 100 µM | K562 > 100 µM | UACC-257 > 100 µM | A549 > 100 µM | OVCAR-8 > 100 µM | NCI-H460 > 100 µM | SK-MEL-5 > 100 µM | SW-620 > 100 µM | DMS-273 > 100 µM | UACC-62 > 100 µM | U-251 > 100 µM | CCRF-CEM > 100 µM | RXF 393 93.3 µM | LOX IMVI > 100 µM | SNB-75 40.7 µM | DLD-1 > 100 µM | SK-MEL-28 83.6 µM | TK-10 > 100 µM | DMS-114 > 100 µM | MOLT-4 > 100 µM | OVCAR-4 > 100 µM | HOP-18 77.1 µM | NCI-H23 > 100 µM | RXF 631 > 100 µM | IGROV-1 > 100 µM | XF498 > 100 µM | SN12C > 100 µM | EKVX > 100 µM | SF-295 > 100 µM | COLO 205 > 100 µM | SNB-19 > 100 µM | HL-60 > 100 µM | HT-29 > 100 µM | HCT-116 > 100 µM | M19-MEL > 100 µM | ACHN > 100 µM | SNB-78 > 100 µM | OVCAR-5 > 100 µM | SK-OV-3 > 100 µM | M14 > 100 µM | KM-20L2 > 100 µM | HOP-92 35.6 µM | CAKI-1 44 µM | RPMI-8226 > 100 µM
